Experimental data reported in patent US5133908A, “Process for the preparation of dispersible colloidal systems of a substance in the form of nanoparticles” (Centre National de la Recherche Scientifique (CNRS), priority 1986, dated 1992).

Legend:
[1] = tested on: bovine serum albumin (BSA) nanoparticles; assay: level of binding of active principle to BSA nanoparticles, ultracentrifugation; type: physicochemical; details: for level of binding of the sodium salicylate to the nanoparticles: of the amount used
Description: (§1) Increasing amounts (from 0.25 g to 2.50 g) of sodium salicylate are added to nanoparticles prepared according to example 1 (HSA) or according to example 5 (BSA). The level of binding of the sodium salicylate to the nanoparticles, measured after ultracentrifugation, is 60% of the amount used, irrespective of the amount of active principle added.
(§2) The procedure uses as in example 1 (1 g of HSA) or of example 5 (1 g of BSA), but carried out in the presence of 0.50 g of sodium salicylate dissolved in phase 1. The mean size of the nanoparticles is 200 nm with a mean dispersion index of 0.5. The level of binding of the sodium salicylate to the nanoparticles, measured after ultracentrifugation, is 60% of the amount used.
(§3) 50 mg of doxorubicin hydrochloride are added to nanoparticles prepared according to example 1 (HSA) or according to example 5 (BSA). The level of binding of doxorubicin to the nanoparticles, measured after ultracentrifugation, is 90% of the quantity used.

[2] = tested on: human serum albumin (HSA) nanoparticles; assay: level of binding of active principle to HSA nanoparticles, ultracentrifugation; type: physicochemical; details: for level of binding of the sodium salicylate to the nanoparticles: of the amount used
Description: as §1, §2, §3

`COc1cccc2c1C(=O)c1c(O)c3c(c(O)c1C2=O)C[C@@](O)(C(=O)CO)C[C@@H]3O[C@H]1C[C@H](N)[C@H](O)[C@H](C)O1` [doxorubicin] was tested. Which “level of binding of doxorubicin to the nanoparticles” value ([1]; BSA nanoparticles, of the quantity used, 50 mg doxorubicin hydrochloride added) did it give?
The value was 90%.

And the “level of binding of doxorubicin to the nanoparticles” value ([2]; HSA nanoparticles, of the quantity used, 50 mg doxorubicin hydrochloride added)?
The value was 90%.

Which results are given for `O=C([O-])c1ccccc1O.[Na+]` [sodium salicylate]?
level of binding of the sodium salicylate to the nanoparticles ([1]; BSA nanoparticles, 0.25 g to 2.50 g added to formed nanoparticles, irrespective of amount): 60%; level of binding of the sodium salicylate to the nanoparticles ([1]; BSA, 0.50 g dissolved in phase 1): 60%; level of binding of the sodium salicylate to the nanoparticles ([2]; HSA nanoparticles, 0.25 g to 2.50 g added to formed nanoparticles, irrespective of amount): 60%; level of binding of the sodium salicylate to the nanoparticles ([2]; HSA, 0.50 g dissolved in phase 1): 60%
